In the assay the target is T1, recombinant human Syk (GST-hSyk fusion protein) (Homo sapiens, UniProt P43405).
T1 construct: purchased Carna Biosciences 08-176
As to the kind of experiment: Homogeneous Time-Resolved Fluorescence (HTRF) assay for the recombinant human Syk enzyme. The format is biochemical. Particulars: 10-dose titration, 25 μM ATP. In a few lines: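 IC50 came from a four-parameter fit over ten doses, 10 μM to 0.508 nM, with HTRF read-out (Eu-anti-pTyr antibody, SA-APC, EDTA stop, 30 min). The enzyme, 5 pM GST-hSyk, met compound for 10 min, then phosphorylated 250 nM biotin-peptide with 25 μM ATP and 5 mM Mg for 45 min at room temperature, pH 7.5.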

Where [1] appears, read: IC50 class, read-out: rhSYK Activity.

Each structure is given as a SMILES string. Read-outs that look alike come from different tables or passages of the source.

For the molecule `Cc1cc(Nc2nccc(C(F)(F)F)n2)cc(-c2cnn(C3CCC(C(=O)O)CC3O)c2)c1` (stereo not shown) [Example 5.39, 3-hydroxy-4-[4-(3-methyl-5-{[4-(trifluoromethyl)pyrimidin-2-yl]amino}phenyl)-1H-pyrazol-1-yl]cyclohexane-carboxylic acid], the IC50 under setting [1] is no more than 100 nM.

Consider `Cc1cc(Nc2nccc(C(F)F)n2)cc(-c2cnn(C[C@]3(O)C[C@H](C#N)C3)c2)c1` [Example 5.40, trans-3-{[4-(3-{[4-(difluoromethyl)pyrimidin-2-yl]amino}-5-methylphenyl)-1H-pyrazol-1-yl]methyl}-3-hydroxycyclobutane-carbonitrile], for which the IC50 under setting [1] is no more than 100 nM.

On to `Cc1cc(Nc2nccc(C(F)F)n2)cc(-c2cnn(CC3(O)CCC3)c2)c1` [Example 5.41, 1-{[4-(3-{[4-(difluoromethyl)pyrimidin-2-yl]amino}-5-methylphenyl)-1H-pyrazol-1-yl]methyl}cyclobutanol], for which, under setting [1], the IC50 was no more than 100 nM.

As to `Cc1cc(Nc2nccc(C(F)F)n2)cc(-c2cnn(CC3(O)CCS(=O)(=O)CC3)c2)c1` [Example 5.42, 4-{[4-(3-{[4-(difluoromethyl)pyrimidin-2-yl]amino}-5-methylphenyl)-1H-pyrazol-1-yl]methyl}tetrahydro-2H-thiopyran-4-ol 1,1-dioxide], the IC50 under setting [1] was no more than 100 nM.

For `Cc1cc(Nc2nccc(C(F)(F)F)n2)cc(-c2cnn(C[C@H](O)C(=O)NCCO)c2)c1` [Example 6.1, (2S)-2-hydroxy-N-(2-hydroxyethyl)-3-[4-(3-methyl-5-{[4-(trifluoromethyl)pyrimidin-2-yl]amino}phenyl)-1H-pyrazol-1-yl]propanamide], the IC50 runs as follows: (read-out: rhSYK IC50) 21.1 nM; under setting [1], no more than 100 nM.

Regarding `Cc1cc(Nc2nccc(OCCO)n2)cc(-c2cnn(C[C@H](O)C(N)=O)c2)c1` [Example 6.2, (2S)-2-hydroxy-3-[4-(3-{[4-(2-hydroxyethoxy)pyrimidin-2-yl]amino}-5-methylphenyl)-1H-pyrazol-1-yl]propanamide], the IC50 under setting [1] was no more than 100 nM.

Consider `Cc1cc(Nc2nccc(C)n2)cc(-c2cnn(C[C@H](O)C(N)=O)c2)c1` [Example 6.3, (2S)-2-hydroxy-3-(4-{3-methyl-5-[(4-methylpyrimidin-2-yl)amino]phenyl}-1H-pyrazol-1-yl)propanamide], for which the IC50 under setting [1] was no more than 100 nM.

With `COc1ccnc(Nc2cc(C)cc(-c3cnn(C[C@H](O)C(N)=O)c3)c2)n1` [Example 6.4, (2S)-2-hydroxy-3-(4-{3-[(4-methoxypyrimidin-2-yl)amino]-5-methylphenyl}-1H-pyrazol-1-yl)propanamide], under setting [1], the IC50 was no more than 100 nM.

For `Cc1cc(Nc2nccc(C3CC3)n2)cc(-c2cnn(C[C@H](O)C(N)=O)c2)c1` [Example 6.5, (2S)-3-(4-{3-[(4-cyclopropyl-pyrimidin-2-yl)amino]-5-methylphenyl}-1H-pyrazol-1-yl)-2-hydroxypropan-amide], under setting [1], the IC50 was no more than 100 nM.

With `Cc1cc(Nc2nccc(OC(C)C)n2)cc(-c2cnn(C[C@H](O)C(N)=O)c2)c1` [Example 6.6, (2S)-2-hydroxy-3-[4-(3-methyl-5-{[4-(1-methyl-ethoxy)pyrimidin-2-yl]amino}-phenyl)-1H-pyrazol-1-yl]-propanamide], the IC50 under setting [1] was no more than 100 nM.

Consider `Cc1cc(Nc2nccc(C(C)(C)C)n2)cc(-c2cnn(C[C@H](O)C(N)=O)c2)c1` [Example 6.7, (2S)-3-(4-{3-[(4-tert-butyl-pyrimidin-2-yl)amino]-5-methylphenyl}-1H-pyrazol-1-yl)-2-hydroxy-propanamide], for which, under setting [1], the IC50 is no more than 100 nM.

Take `Cc1cc(Nc2nccc(C(C)F)n2)cc(-c2cnn(C[C@H](O)C(N)=O)c2)c1` (stereo partly drawn) [Example 6.8, (2S)-3-[4-(3-{[4-(1-fluoroethyl)-pyrimidin-2-yl]amino}-5-methylphenyl)-1H-pyrazol-1-yl]-2-hydroxy-propanamide]: under setting [1], the IC50 was no more than 100 nM.

With `Cc1cc(Nc2nccc(C(C)C)n2)cc(-c2cnn(C[C@H](O)C(N)=O)c2)c1` [Example 6.9, (2S)-2-hydroxy-3-[4-(3-methyl-5-{[4-(1-methyl-ethyl)pyrimidin-2-yl]-amino}phenyl)-1H-pyrazol-1-yl]propanamide], the IC50 under setting [1] was no more than 100 nM.

With `Cc1cc(Nc2nccc(C(F)(F)F)n2)cc(-c2cnn(C[C@H](O)C(=O)NCCCN3CCCC3=O)c2)c1` [Example 6.10, (2S)-2-hydroxy-3-[4-(3-methyl-5-{[4-(trifluorometh-yl)pyrimidin-2-yl]amino}phenyl)-1H-pyrazol-1-yl]-N-[3-(2-oxopyrrolidin-1-yl)propyl]propan-amide], the IC50 under setting [1] lay in the range of 100 to 1000 nM.

For `CNC(=O)[C@@H](O)Cn1cc(-c2cc(C)cc(Nc3nccc(C(F)(F)F)n3)c2)cn1` [Example 6.11, (2S)-2-hydroxy-N-methyl-3-[4-(3-methyl-5-{[4-(trifluorometh-yl)pyrimidin-2-yl]amino}phenyl)-1H-pyrazol-1-yl]propanamide], the IC50 under setting [1] was no more than 100 nM.

As to `COCCCNC(=O)[C@@H](O)Cn1cc(-c2cc(C)cc(Nc3nccc(C(F)(F)F)n3)c2)cn1` [Example 6.12, (2S)-2-hydroxy-N-(3-methoxypropyl)-3-[4-(3-methyl-5-{[4-(trifluorometh-yl)pyrimidin-2-yl]amino}phenyl)-1H-pyrazol-1-yl]propanamide], the IC50 under setting [1] was no more than 100 nM.

With `COCCNC(=O)[C@@H](O)Cn1cc(-c2cc(C)cc(Nc3nccc(C(F)(F)F)n3)c2)cn1` [Example 6.13, (2S)-2-hydroxy-N-(2-methoxyethyl)-3-[4-(3-methyl-5-{[4-(trifluorometh-yl)pyrimidin-2-yl]amino}phenyl)-1H-pyrazol-1-yl]propanamide], the IC50 under setting [1] was no more than 100 nM.

For the molecule `Cc1cc(Nc2cc(C(F)(F)F)ccn2)nc(-c2cnn(C3CCC(C(N)=O)c4ccccc43)c2)c1` (stereo not shown) [Example 6.14, 4-[4-(4-methyl-6-{[4-(trifluoro-methyl)-pyridin-2-yl]amino}-pyridin-2-yl)-1H-pyrazol-1-yl]-1,2,3,4-tetrahydro-naphthalene-1-carboxamide], under setting [1], the IC50 was no more than 100 nM.

For `Cc1cc(Nc2cc(C(F)(F)F)ccn2)nc(-c2cnn(C[C@H](O)C(N)=O)c2)c1` [Example 6.15, (2S)-2-hydroxy-3-[4-(4-methyl-6-{[4-(trifluoro-methyl)-pyridin-2-yl]amino}-pyridin-2-yl)-1H-pyrazol-1-yl]-propanamide], the IC50 under setting [1] was no more than 100 nM.

In the case of `Cc1cc(Nc2cc(C(F)(F)F)ccn2)nc(-c2cnn(CC(O)c3ccc(C(N)=O)cc3)c2)c1` (stereo not shown) [Example 6.16, 4-{1-hydroxy-2-[4-(4-methyl-6-{[4-(trifluoromethyl)-pyridin-2-yl]amino}-pyridin-2-yl)-1H-pyrazol-1-yl]ethyl}-benzamide], the IC50 under setting [1] is no more than 100 nM.

On to `Cc1cc(Nc2nccc(C(F)(F)F)n2)cc(-c2cnn(C[C@H](N)C(N)=O)c2)c1` [Example 7.2, 3-[4-(3-methyl-5-{[4-(trifluoro-methyl)pyrimidin-2-yl]amino}phenyl)-1H-pyrazol-1-yl]-1-alaninamide], for which the IC50 under setting [1] was no more than 100 nM.

As for `Cc1cc(Nc2nccc(C(F)(F)F)n2)cc(-c2cnn(C[C@@H](O)C(N)=O)c2)c1` [Example 7.3, (2R)-2-hydroxy-3-[4-(3-methyl-5-{[4-(trifluorometh-yl)pyrimidin-2-yl]amino}-phenyl)-1H-pyrazol-1-yl]propanamide], the IC50 under setting [1] is no more than 100 nM.

As for `Cc1cc(Nc2nccc(C(F)(F)F)n2)cc(-c2cnn(C[C@H](O)C(N)=O)c2)c1` [Example 7.4, (2S)-2-hydroxy-3-[4-(3-methyl-5-{[4-(trifluorometh-yl)pyrimidin-2-yl]amino}-phenyl)-1H-pyrazol-1-yl]propanamide], under setting [1], the IC50 is no more than 100 nM.

For `Cc1cc(Nc2nccc(C(F)(F)F)n2)cc(-c2cnn(C(C)C(O)C(N)=O)c2)c1` (stereo not shown) [Example 7.5, 2-hydroxy-3-[4-(3-methyl-5-{[4-(trifluorometh-yl)pyrimidin-2-yl]amino}-phenyl)-1H-pyrazol-1-yl]butanamide], the IC50 under setting [1] was no more than 100 nM.

In the case of `Cc1cc(Nc2nccc(C(F)(F)F)n2)cc(-c2cnn(C(C)C(O)C(N)=O)c2)c1` (stereo not shown) [Example 7.6, 2-hydroxy-3-[4-(3-methyl-5-{[4-(trifluorometh-yl)pyrimidin-2-yl]amino}-phenyl)-1H-pyrazol-1-yl]butanamide], under setting [1], the IC50 is no more than 100 nM.

Turning to `Cc1cc(Nc2nccc(C(F)(F)F)n2)cc(-c2cnn(C[C@@H](O)C(N)=O)c2)c1` [Example 8.2, (2R)-2-hydroxy-3-[4-(3-methyl-5-{[4-(trifluorometh-yl)pyrimidin-2-yl]amino}phenyl)-1H-pyrazol-1-yl]propanamide], the IC50 under setting [1] was no more than 100 nM.

As for `Cc1cc(Nc2nccc(C(F)(F)F)n2)cc(-c2cnn(C[C@H](O)C(N)=O)c2)c1` [Example 8.4, (2S)-2-hydroxy-3-[4-(3-methyl-5-{[4-(trifluoromethyl)-pyrimidin-2-yl]amino}-phenyl)-1H-pyrazol-1-yl]propanamide], the IC50 under setting [1] was no more than 100 nM.

With `Cc1cc(Nc2nccc(OCCO)n2)cc(-c2cnn(C3CCC(C(N)=O)CC3)c2)c1` (stereo not shown) [Example 8.5, 4-[4-(3-{[4-(2-hydroxy-ethoxy)pyrimidin-2-yl]amino}-5-methylphenyl)-1H-pyrazol-1-yl]-cyclo-hexanecarboxamide], the IC50 under setting [1] is no more than 100 nM.

With `Cc1cc(Nc2nccc(C(F)(F)F)n2)cc(-c2cnn(C3CCC(C(N)=O)CC3)c2)c1` (stereo not shown) [Example 8.6, 4-[4-(3-methyl-5-{[4-(trifluorometh-yl)pyrimidin-2-yl]amino}-phenyl)-1H-pyrazol-1-yl]cyclohexane-carboxamide], the IC50 under setting [1] was no more than 100 nM.

Take `Cc1cc(Nc2nccc(C(F)(F)F)n2)cc(-c2cnn(C3CCC(C(N)=O)C(C)(C)C3)c2)c1` (stereo not shown) [Example 8.7, 2,2-dimethyl-4-[4-(3-methyl-5-{[4-(trifluoromethyl)-pyrimidin-2-yl]amino}-phenyl)-1H-pyrazol-1-yl]cyclohexane-carboxamide]: the IC50 under setting [1] was no more than 100 nM.

These data come from patent US9242984B2, “Pyrazolyl derivatives as Syk inhibitors” (Merck Sharp & Dohme Corp., priority 2012, dated 2016).
